Source: PubChem BioAssay (NCI)
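All cell lines were grown in 96-well plates and treated with compound for 48 hours. At the GI50, growth is halved. TGI: total growth inhibition.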

Legend:
Test in all cases: inhibition of tumour cell growth, NCI panel, 48 h
HCT-15 colon = system: HCT-15 colon
DLD-1 colon = system: DLD-1 colon
NCI-H522 lung = system: NCI-H522 lung
HOP-62 NSCLC = system: HOP-62 NSCLC
HL-60(TB) leukemia = system: HL-60(TB) leukemia
HT29 colon = system: HT29 colon
NCI-H23 lung = system: NCI-H23 lung
HCT-116 colon = system: HCT-116 colon
M19-MEL melanoma = system: M19-MEL melanoma
SF-539 CNS = system: SF-539 CNS
NCI-H460 lung = system: NCI-H460 lung
HOP-92 NSCLC = system: HOP-92 NSCLC
UACC-257 melanoma = system: UACC-257 melanoma
ACHN renal = system: ACHN renal
DMS 273 small cell lung = system: DMS 273 small cell lung
KM12 colon = system: KM12 colon
EKVX NSCLC = system: EKVX NSCLC
SK-MEL-2 melanoma = system: SK-MEL-2 melanoma
TK-10 renal = system: TK-10 renal
OVCAR-4 ovarian = system: OVCAR-4 ovarian
DMS 114 small cell lung = system: DMS 114 small cell lung
SK-MEL-5 melanoma = system: SK-MEL-5 melanoma
MALME-3M melanoma = system: MALME-3M melanoma
HCC-2998 colon = system: HCC-2998 colon
M14 melanoma = system: M14 melanoma
KM20L2 colon = system: KM20L2 colon
LOX IMVI melanoma = system: LOX IMVI melanoma
COLO 205 colon = system: COLO 205 colon
HOP-18 NSCLC = system: HOP-18 NSCLC
OVCAR-3 ovarian = system: OVCAR-3 ovarian
CCRF-CEM leukemia = system: CCRF-CEM leukemia
UACC-62 melanoma = system: UACC-62 melanoma
786-0 renal = system: 786-0 renal
UO-31 renal = system: UO-31 renal
MOLT-4 leukemia = system: MOLT-4 leukemia
U251 CNS = system: U251 CNS
CAKI-1 renal = system: CAKI-1 renal
SNB-75 CNS = system: SNB-75 CNS
OVCAR-8 ovarian = system: OVCAR-8 ovarian
LXFL 529 NSCLC = system: LXFL 529 NSCLC
RXF 393 renal = system: RXF 393 renal
SNB-19 CNS = system: SNB-19 CNS
OVCAR-5 ovarian = system: OVCAR-5 ovarian
NCI-H226 lung = system: NCI-H226 lung
SR leukemia = system: SR leukemia
SNB-78 CNS = system: SNB-78 CNS
SF-295 CNS = system: SF-295 CNS
SN12C renal = system: SN12C renal
SK-MEL-28 melanoma = system: SK-MEL-28 melanoma
IGROV1 ovarian = system: IGROV1 ovarian
SF-268 CNS = system: SF-268 CNS
RPMI-8226 leukemia = system: RPMI-8226 leukemia
A549 NSCLC = system: A549 NSCLC
SK-OV-3 ovarian = system: SK-OV-3 ovarian
XF 498 CNS = system: XF 498 CNS
A498 renal = system: A498 renal
SW-620 colon = system: SW-620 colon
K-562 leukemia = system: K-562 leukemia

FC(F)(F)c1nnn[n-]1.[Au+].c1ccc([PH+](c2ccccc2)c2ccccc2)cc1
GI50 (HCT-15 colon): 2.19 µM | TGI (HCT-15 colon): 6.92 µM | GI50 (DLD-1 colon): 1.95 µM | TGI (DLD-1 colon): 5.04 µM | GI50 (NCI-H522 lung): 1.33 µM | TGI (NCI-H522 lung): 2.81 µM | GI50 (HOP-62 NSCLC): 19.7 µM | TGI (HOP-62 NSCLC): 34.2 µM | GI50 (HL-60(TB) leukemia): 0.161 µM | TGI (HL-60(TB) leukemia): 0.42 µM | GI50 (HT29 colon): 4.25 µM | TGI (HT29 colon): 13.2 µM | GI50 (NCI-H23 lung): 2.79 µM | TGI (NCI-H23 lung): 9.11 µM | GI50 (HCT-116 colon): 12.4 µM | TGI (HCT-116 colon): 24.9 µM | GI50 (M19-MEL melanoma): 2.74 µM | TGI (M19-MEL melanoma): 15.7 µM | GI50 (SF-539 CNS): 5.18 µM | TGI (SF-539 CNS): 19.4 µM | GI50 (NCI-H460 lung): 16.6 µM | TGI (NCI-H460 lung): 50.4 µM | GI50 (HOP-92 NSCLC): 2.38 µM | TGI (HOP-92 NSCLC): 4.59 µM | GI50 (UACC-257 melanoma): 1.82 µM | TGI (UACC-257 melanoma): 7.43 µM | GI50 (ACHN renal): 4.63 µM | TGI (ACHN renal): 9.84 µM | GI50 (DMS 273 small cell lung): 5.62 µM | TGI (DMS 273 small cell lung): 54.7 µM | GI50 (KM12 colon): 13.2 µM | TGI (KM12 colon): 42.5 µM | GI50 (EKVX NSCLC): 5.65 µM | TGI (EKVX NSCLC): 10.4 µM | GI50 (SK-MEL-2 melanoma): 3.09 µM | TGI (SK-MEL-2 melanoma): 10.8 µM | GI50 (TK-10 renal): 3.51 µM | TGI (TK-10 renal): 9.27 µM | GI50 (OVCAR-4 ovarian): 2.09 µM | TGI (OVCAR-4 ovarian): 6.67 µM | GI50 (DMS 114 small cell lung): 1.95 µM | TGI (DMS 114 small cell lung): 15 µM | GI50 (SK-MEL-5 melanoma): 2 µM | TGI (SK-MEL-5 melanoma): 7.15 µM | GI50 (MALME-3M melanoma): 1.58 µM | TGI (MALME-3M melanoma): 3.35 µM | GI50 (HCC-2998 colon): 10.3 µM | TGI (HCC-2998 colon): 22.3 µM | GI50 (M14 melanoma): 1.78 µM | TGI (M14 melanoma): 4.37 µM | GI50 (KM20L2 colon): 6.74 µM | TGI (KM20L2 colon): 16.6 µM | GI50 (LOX IMVI melanoma): 2.26 µM | TGI (LOX IMVI melanoma): 7.64 µM | GI50 (COLO 205 colon): 2.62 µM | TGI (COLO 205 colon): 6.94 µM | GI50 (HOP-18 NSCLC): 8.67 µM | TGI (HOP-18 NSCLC): 20.5 µM | GI50 (OVCAR-3 ovarian): 2.89 µM | TGI (OVCAR-3 ovarian): 7.49 µM | GI50 (CCRF-CEM leukemia): 0.449 µM | TGI (CCRF-CEM leukemia): 2.91 µM | GI50 (UACC-62 melanoma): 2.17 µM | TGI (UACC-62 melanoma): 10.7 µM | GI50 (786-0 renal): 1.84 µM | TGI (786-0 renal): 3.55 µM | GI50 (UO-31 renal): 6.84 µM | TGI (UO-31 renal): 16.7 µM | GI50 (MOLT-4 leukemia): 1.52 µM | TGI (MOLT-4 leukemia): 4.09 µM | GI50 (U251 CNS): 3.04 µM | TGI (U251 CNS): 11.1 µM | GI50 (CAKI-1 renal): 3.6 µM | TGI (CAKI-1 renal): 14.2 µM | GI50 (SNB-75 CNS): 8.64 µM | TGI (SNB-75 CNS): 22.1 µM | GI50 (OVCAR-8 ovarian): 2.77 µM | TGI (OVCAR-8 ovarian): 9.18 µM | GI50 (LXFL 529 NSCLC): 1.48 µM | TGI (LXFL 529 NSCLC): 2.82 µM | GI50 (RXF 393 renal): 1.52 µM | TGI (RXF 393 renal): 3.11 µM | GI50 (SNB-19 CNS): 4.07 µM | TGI (SNB-19 CNS): 13.6 µM | GI50 (OVCAR-5 ovarian): 16.1 µM | TGI (OVCAR-5 ovarian): 30 µM | GI50 (NCI-H226 lung): 10.9 µM | TGI (NCI-H226 lung): 26.3 µM | GI50 (SR leukemia): 1.3 µM | TGI (SR leukemia): 3.65 µM | GI50 (SNB-78 CNS): 6.66 µM | TGI (SNB-78 CNS): > 62.7 µM | GI50 (SF-295 CNS): 11 µM | TGI (SF-295 CNS): 41.3 µM | GI50 (SN12C renal): 6.34 µM | TGI (SN12C renal): 16.4 µM | GI50 (SK-MEL-28 melanoma): 2.49 µM | TGI (SK-MEL-28 melanoma): 7.35 µM | GI50 (IGROV1 ovarian): 2.69 µM | TGI (IGROV1 ovarian): 13.2 µM | GI50 (SF-268 CNS): 4.2 µM | TGI (SF-268 CNS): 13.1 µM | GI50 (RPMI-8226 leukemia): 1.41 µM | TGI (RPMI-8226 leukemia): 4.63 µM | GI50 (A549 NSCLC): 19.3 µM | TGI (A549 NSCLC): 62.3 µM | GI50 (SK-OV-3 ovarian): 15.6 µM | TGI (SK-OV-3 ovarian): 29 µM

O=C(CC1=Nc2nnc(CCCCCCCc3nnc4n3C(=O)C(CC(=O)c3ccccc3)=N4)n2C1=O)c1ccccc1
TGI (HCT-15 colon): > 100 µM | TGI (XF 498 CNS): > 100 µM | TGI (DLD-1 colon): > 100 µM | TGI (NCI-H522 lung): > 100 µM | TGI (HOP-62 NSCLC): > 100 µM | TGI (HL-60(TB) leukemia): > 100 µM | TGI (HT29 colon): > 100 µM | TGI (NCI-H23 lung): > 100 µM | TGI (HCT-116 colon): > 100 µM | TGI (M19-MEL melanoma): > 100 µM | TGI (SF-539 CNS): > 100 µM | TGI (NCI-H460 lung): > 100 µM | TGI (HOP-92 NSCLC): > 100 µM | TGI (UACC-257 melanoma): > 100 µM | TGI (ACHN renal): > 100 µM | TGI (KM12 colon): > 100 µM | TGI (EKVX NSCLC): > 100 µM | TGI (A498 renal): > 100 µM | TGI (TK-10 renal): > 100 µM | TGI (SW-620 colon): > 100 µM | TGI (DMS 114 small cell lung): > 100 µM | TGI (SK-MEL-5 melanoma): > 100 µM | TGI (MALME-3M melanoma): > 100 µM | TGI (HCC-2998 colon): > 100 µM | TGI (M14 melanoma): > 100 µM | TGI (KM20L2 colon): > 100 µM | TGI (LOX IMVI melanoma): > 100 µM | TGI (COLO 205 colon): > 100 µM | TGI (HOP-18 NSCLC): > 100 µM | TGI (OVCAR-3 ovarian): > 100 µM | TGI (CCRF-CEM leukemia): > 100 µM | TGI (UACC-62 melanoma): > 100 µM | TGI (786-0 renal): > 100 µM | TGI (UO-31 renal): > 100 µM | TGI (MOLT-4 leukemia): > 100 µM | TGI (U251 CNS): > 100 µM | TGI (CAKI-1 renal): > 100 µM | TGI (SNB-75 CNS): > 100 µM | TGI (K-562 leukemia): > 100 µM | TGI (OVCAR-8 ovarian): > 100 µM | TGI (LXFL 529 NSCLC): > 100 µM | TGI (RXF 393 renal): > 100 µM | TGI (SNB-19 CNS): > 100 µM | TGI (OVCAR-5 ovarian): > 100 µM | TGI (NCI-H226 lung): > 100 µM | TGI (SR leukemia): > 100 µM | TGI (SF-295 CNS): > 100 µM | TGI (SN12C renal): > 100 µM | TGI (SK-MEL-28 melanoma): > 100 µM | TGI (IGROV1 ovarian): > 100 µM | TGI (SF-268 CNS): > 100 µM | TGI (RPMI-8226 leukemia): > 100 µM | TGI (A549 NSCLC): > 100 µM | TGI (SK-OV-3 ovarian): > 100 µM
